Source: PubChem BioAssay (NCI)
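Protocol summary: plate cells (96-well), add compound at 5 concentrations, incubate 48 h, interpolate endpoints linearly. TGI: concentration producing complete growth inhibition.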

How the values were obtained:
Test in all cases: DTP human tumour cell line panel, 48 h
A498 renal = test system: A498 renal
A549 NSCLC = test system: A549 NSCLC
CCRF-CEM leukemia = test system: CCRF-CEM leukemia
DMS 273 small cell lung = test system: DMS 273 small cell lung
EKVX NSCLC = test system: EKVX NSCLC
HL-60(TB) leukemia = test system: HL-60(TB) leukemia
HOP-62 NSCLC = test system: HOP-62 NSCLC
HOP-92 NSCLC = test system: HOP-92 NSCLC
HT29 colon = test system: HT29 colon
IGROV1 ovarian = test system: IGROV1 ovarian
K-562 leukemia = test system: K-562 leukemia
KM12 colon = test system: KM12 colon
M14 melanoma = test system: M14 melanoma
M19-MEL melanoma = test system: M19-MEL melanoma
MOLT-4 leukemia = test system: MOLT-4 leukemia
NCI-H226 lung = test system: NCI-H226 lung
NCI-H23 lung = test system: NCI-H23 lung
NCI-H460 lung = test system: NCI-H460 lung
NCI-H522 lung = test system: NCI-H522 lung
OVCAR-5 ovarian = test system: OVCAR-5 ovarian
RXF 393 renal = test system: RXF 393 renal
SF-268 CNS = test system: SF-268 CNS
SK-MEL-28 melanoma = test system: SK-MEL-28 melanoma
SK-OV-3 ovarian = test system: SK-OV-3 ovarian
SNB-19 CNS = test system: SNB-19 CNS
SNB-78 CNS = test system: SNB-78 CNS
SR leukemia = test system: SR leukemia
TK-10 renal = test system: TK-10 renal
U251 CNS = test system: U251 CNS
UACC-62 melanoma = test system: UACC-62 melanoma
UO-31 renal = test system: UO-31 renal
786-0 renal = test system: 786-0 renal
ACHN renal = test system: ACHN renal
BT-549 breast = test system: BT-549 breast
CAKI-1 renal = test system: CAKI-1 renal
COLO 205 colon = test system: COLO 205 colon
DU-145 prostate = test system: DU-145 prostate
HCC-2998 colon = test system: HCC-2998 colon
HCT-116 colon = test system: HCT-116 colon
HCT-15 colon = test system: HCT-15 colon
HS 578T breast = test system: HS 578T breast
LOX IMVI melanoma = test system: LOX IMVI melanoma
MALME-3M melanoma = test system: MALME-3M melanoma
MCF7 breast = test system: MCF7 breast
MDA-MB-231 breast = test system: MDA-MB-231 breast
MDA-MB-435 = test system: MDA-MB-435
MDA-N = test system: MDA-N
NCI/ADR-RES ovarian = test system: NCI/ADR-RES ovarian
OVCAR-3 ovarian = test system: OVCAR-3 ovarian
OVCAR-4 ovarian = test system: OVCAR-4 ovarian
OVCAR-8 ovarian = test system: OVCAR-8 ovarian
PC-3 prostate = test system: PC-3 prostate
RPMI-8226 leukemia = test system: RPMI-8226 leukemia
SF-295 CNS = test system: SF-295 CNS
SF-539 CNS = test system: SF-539 CNS
SK-MEL-2 melanoma = test system: SK-MEL-2 melanoma
SK-MEL-5 melanoma = test system: SK-MEL-5 melanoma
SN12C renal = test system: SN12C renal
SNB-75 CNS = test system: SNB-75 CNS
SW-620 colon = test system: SW-620 colon
T-47D breast = test system: T-47D breast
UACC-257 melanoma = test system: UACC-257 melanoma

Structure (SMILES): N#CC1Sc2ccccc2-n2cccc21 (centres undefined)
- TGI (A498 renal): > 100 µM
- TGI (A549 NSCLC): > 100 µM
- TGI (CCRF-CEM leukemia): > 100 µM
- TGI (DMS 273 small cell lung): > 100 µM
- TGI (EKVX NSCLC): > 100 µM
- TGI (HL-60(TB) leukemia): 61.6 µM
- TGI (HOP-62 NSCLC): > 100 µM
- TGI (HOP-92 NSCLC): > 100 µM
- TGI (HT29 colon): > 100 µM
- TGI (IGROV1 ovarian): > 100 µM
- TGI (K-562 leukemia): 95.5 µM
- TGI (KM12 colon): > 100 µM
- TGI (M14 melanoma): > 100 µM
- TGI (M19-MEL melanoma): > 100 µM
- TGI (MOLT-4 leukemia): > 100 µM
- TGI (NCI-H226 lung): 87.6 µM
- TGI (NCI-H23 lung): > 100 µM
- TGI (NCI-H460 lung): > 100 µM
- TGI (NCI-H522 lung): > 100 µM
- TGI (OVCAR-5 ovarian): > 100 µM
- TGI (RXF 393 renal): 67.3 µM
- TGI (SF-268 CNS): 78.2 µM
- TGI (SK-MEL-28 melanoma): > 100 µM
- TGI (SK-OV-3 ovarian): > 100 µM
- TGI (SNB-19 CNS): > 100 µM
- TGI (SNB-78 CNS): > 100 µM
- TGI (SR leukemia): > 100 µM
- TGI (TK-10 renal): > 100 µM
- TGI (U251 CNS): > 100 µM
- TGI (UACC-62 melanoma): 99.2 µM
- TGI (UO-31 renal): 93.3 µM

Structure (SMILES): C[C@]12CC[C@H](O)C[C@@H]1CC[C@@H]1[C@@H]2CC[C@]2(C)[C@@H](c3cc(C(F)(F)F)n[nH]3)CC[C@@H]12
- TGI (786-0 renal): 17 µM
- TGI (A498 renal): 21.1 µM
- TGI (A549 NSCLC): 23.1 µM
- TGI (ACHN renal): 20 µM
- TGI (BT-549 breast): 23 µM
- TGI (CAKI-1 renal): 26.9 µM
- TGI (CCRF-CEM leukemia): 5.43 µM
- TGI (COLO 205 colon): 16.2 µM
- TGI (DU-145 prostate): 22.9 µM
- TGI (EKVX NSCLC): 28.2 µM
- TGI (HCC-2998 colon): 34.4 µM
- TGI (HCT-116 colon): 14 µM
- TGI (HCT-15 colon): 24.3 µM
- TGI (HL-60(TB) leukemia): 2.89 µM
- TGI (HOP-62 NSCLC): 23 µM
- TGI (HOP-92 NSCLC): 9.07 µM
- TGI (HS 578T breast): > 58.9 µM
- TGI (HT29 colon): 18.4 µM
- TGI (IGROV1 ovarian): 19.8 µM
- TGI (K-562 leukemia): 15.3 µM
- TGI (KM12 colon): 25.6 µM
- TGI (LOX IMVI melanoma): 21.7 µM
- TGI (M14 melanoma): 23.9 µM
- TGI (MALME-3M melanoma): > 53.3 µM
- TGI (MCF7 breast): 21.1 µM
- TGI (MDA-MB-231 breast): 18.9 µM
- TGI (MDA-MB-435): 22.9 µM
- TGI (MDA-N): 25.4 µM
- TGI (MOLT-4 leukemia): 19.7 µM
- TGI (NCI-H226 lung): 36.7 µM
- TGI (NCI-H23 lung): 24.7 µM
- TGI (NCI-H460 lung): 15.3 µM
- TGI (NCI-H522 lung): > 43.8 µM
- TGI (NCI/ADR-RES ovarian): 23.3 µM
- TGI (OVCAR-3 ovarian): 24.8 µM
- TGI (OVCAR-4 ovarian): 20.2 µM
- TGI (OVCAR-5 ovarian): 23.5 µM
- TGI (OVCAR-8 ovarian): 21 µM
- TGI (PC-3 prostate): 20.7 µM
- TGI (RPMI-8226 leukemia): 22.7 µM
- TGI (RXF 393 renal): 16.5 µM
- TGI (SF-268 CNS): > 53.6 µM
- TGI (SF-295 CNS): 16.9 µM
- TGI (SF-539 CNS): 22.5 µM
- TGI (SK-MEL-2 melanoma): 33.1 µM
- TGI (SK-MEL-28 melanoma): 26.9 µM
- TGI (SK-MEL-5 melanoma): 19.6 µM
- TGI (SK-OV-3 ovarian): 28.4 µM
- TGI (SN12C renal): 21.7 µM
- TGI (SNB-19 CNS): 28.3 µM
- TGI (SNB-75 CNS): 24.5 µM
- TGI (SR leukemia): 15.3 µM
- TGI (SW-620 colon): 37.3 µM
- TGI (T-47D breast): 23.6 µM
- TGI (TK-10 renal): 16 µM
- TGI (U251 CNS): 24.1 µM
- TGI (UACC-257 melanoma): 16.8 µM
- TGI (UACC-62 melanoma): 27.4 µM
- TGI (UO-31 renal): 3.1 µM

Structure (SMILES): Cc1ccc(C(=O)CCl)o1
- TGI (786-0 renal): 9.71 µM
- TGI (A498 renal): > 10 µM
- TGI (A549 NSCLC): > 10 µM
- TGI (ACHN renal): > 10 µM
- TGI (BT-549 breast): > 10 µM
- TGI (CAKI-1 renal): > 7.23 µM
- TGI (CCRF-CEM leukemia): > 7.83 µM
- TGI (COLO 205 colon): > 8.18 µM
- TGI (DU-145 prostate): > 10 µM
- TGI (EKVX NSCLC): > 10 µM
- TGI (HCC-2998 colon): > 10 µM
- TGI (HCT-116 colon): 6.62 µM
- TGI (HCT-15 colon): > 10 µM
- TGI (HL-60(TB) leukemia): 4.22 µM
- TGI (HOP-62 NSCLC): > 10 µM
- TGI (HOP-92 NSCLC): > 10 µM
- TGI (HS 578T breast): > 10 µM
- TGI (HT29 colon): > 10 µM
- TGI (IGROV1 ovarian): > 10 µM
- TGI (K-562 leukemia): > 10 µM
- TGI (KM12 colon): > 10 µM
- TGI (LOX IMVI melanoma): 8.76 µM
- TGI (M14 melanoma): > 10 µM
- TGI (MALME-3M melanoma): > 8.31 µM
- TGI (MCF7 breast): > 10 µM
- TGI (MDA-MB-231 breast): > 10 µM
- TGI (MDA-MB-435): > 10 µM
- TGI (MDA-N): > 10 µM
- TGI (MOLT-4 leukemia): 5.68 µM
- TGI (NCI-H226 lung): > 10 µM
- TGI (NCI-H23 lung): > 10 µM
- TGI (NCI-H460 lung): > 10 µM
- TGI (NCI-H522 lung): > 5.46 µM
- TGI (NCI/ADR-RES ovarian): > 10 µM
- TGI (OVCAR-3 ovarian): > 10 µM
- TGI (OVCAR-4 ovarian): > 10 µM
- TGI (OVCAR-5 ovarian): > 9.57 µM
- TGI (OVCAR-8 ovarian): > 6.61 µM
- TGI (PC-3 prostate): > 10 µM
- TGI (RPMI-8226 leukemia): 5.42 µM
- TGI (RXF 393 renal): > 10 µM
- TGI (SF-268 CNS): > 10 µM
- TGI (SF-295 CNS): > 10 µM
- TGI (SF-539 CNS): > 10 µM
- TGI (SK-MEL-2 melanoma): > 10 µM
- TGI (SK-MEL-28 melanoma): > 10 µM
- TGI (SK-MEL-5 melanoma): > 10 µM
- TGI (SK-OV-3 ovarian): > 10 µM
- TGI (SN12C renal): > 10 µM
- TGI (SNB-19 CNS): > 10 µM
- TGI (SNB-75 CNS): > 10 µM
- TGI (SR leukemia): > 10 µM
- TGI (SW-620 colon): 5 µM
- TGI (T-47D breast): > 7.79 µM
- TGI (TK-10 renal): > 10 µM
- TGI (U251 CNS): > 10 µM
- TGI (UACC-257 melanoma): > 10 µM
- TGI (UACC-62 melanoma): > 10 µM
- TGI (UO-31 renal): > 6.21 µM
